Values of other authors in patent US9555003B2, “Oral solid formulation of compound anti-tubercular drug and preparation method thereof” (priority 2011, dated 2017).
Converted amounts (≈) assume the structure as drawn.

What was measured:
[1] = not given; remark: listed apart in the source

Row | SMILES | solubility in water | Vd ([1]; in vivo) | protein binding rate ([1]; in vivo) | oral absorption rate ([1]; oral) | time to peak serum drug concentration after administration ([1]; oral) | solubility in ethanol | solubility in ethyl ether | intra-cellular concentration for inhibiting tubercle bacillus relative to extracellular concentration (tubercle bacillus; folds lower than the extracellular concentration) | concentration at which tubercle bacillus is eliminated (tubercle bacillus; tubercle bacillus) | minimum inhibitory concentration (tubercle bacillus; tubercle bacillus)
1 | CC[C@H](CO)NCCN[C@H](CC)CO.Cl.Cl [Ethambutol hydrochloride] | easily soluble | – | – | – | – | – | – | – | – | –
2 | NNC(=O)c1ccncc1 [Isoniazid, 4-pyridylcarbonylhydrazine] | easily soluble | 0.61 ± 0.11 L/kg | very low | 90% | 1 to 2 h | slightly soluble | very slightly soluble | – | – | –
3 | NC(=O)c1cnccn1 [Pyrazinamide] | slightly soluble | – | – | – | – | slightly soluble | very slightly soluble | 10 folds | 50 µg/mL | 12.5 µg/mL (≈ 102 µM)
4 | CO[C@H]1/C=C/O[C@@]2(C)Oc3c(C)c(O)c4c(O)c(c(/C=N/N5CCN(C)CC5)c(O)c4c3C2=O)NC(=O)/C(C)=C\C=C\[C@H](C)[C@H](O)[C@@H](C)[C@@H](O)[C@@H](C)[C@H](OC(C)=O)[C@@H]1C [Rifampicin] | poorly soluble | – | – | – | – | – | – | – | – | –
